Measured values published in patent US20250009942A1, “BIODEGRADABLE PIEZOELECTRIC NANOFIBERS” (University of Connecticut, priority 2022, published 2025).

Details: corona discharge, 20 kV
Description: Ionized air particles around the needle were accelerated and bombard towards the sample surface, causing electric field across the substrate. […] Later, the samples (n=5 for each group) were positioned on an anti-static mat (Bertech, 1059-2X3BKT) to increase the accuracy of the measurement. The voltmeter was grounded and was held 5 mm from the sample surface.
The particles 130, 190 were placed on a ground plate and a high voltage (20 kV) was applied between the plate and the top positive nozzle.

## NCC(=O)O [glycine particles, glycine]
  charge accumulation rate and surface charge density after poling: considerably higher than those before poling
